From PubChem BioAssay AID602307 (Southern Research Specialized Biocontainment Screening …, 2012)
Activity calls are given as the source filed them. The rule behind the calls is not given here.

Test system: VEEV TC-83 infected cells, virus titer reduction
Assay: VEEV titer reduction by compounds, cell-based, TC-83 strain, virus titer (AID 602307)
Details: for log virus titer change: stronger effect = lower value

SMILES | log virus titer change (at 5 µM) | log virus titer change (titer change, at 10 µM) | outcome
O=C(Cc1cccs1)Nc1nc2ccccc2s1 | -0.238 (inactive) |  | 
O=C(Cc1ccccc1)Nc1nc2c(s1)CCCC2 | -0.01 (inactive) |  | 
CCN1CCN(Cc2nc3ccc([N+](=O)[O-])cc3c(=O)n2-c2ccccc2F)CC1 | < -6.36 | -5.8 | 
CCOC(=O)c1ccc(Nc2nc(=O)c3cccnc3s2)cc1 |  | -3.31 | active
O=C(Cc1cccs1)Nc1nccs1 | -0.062 (inactive) |  | 
O=c1nc(Nc2ccc(OCc3ccccc3)cc2)sc2ncccc12 |  | -3.43 | active
CC(C)N1CCN(Cc2nc3ccc([N+](=O)[O-])cc3c(=O)n2-c2ccccc2F)CC1 | 0.041 (inactive) |  | 
O=c1c2cc([N+](=O)[O-])ccc2nc(CN2CCN(c3ccccc3)CC2)n1-c1ccccc1F |  | -1.3 | active
Cc1cc(Cc2cc(C)cc(C(C)(C)C)c2O)c(O)c(Cc2cc(C)cc(C(C)(C)C)c2O)c1 | -0.734 (inactive) |  | 
CN1CCN(Cc2nc3ccc([N+](=O)[O-])cc3c(=O)n2-c2ccccc2F)CC1 | < -6.36 |  | 
O=C(Oc1ccc2ccccc2c1Br)N1CCCCCC1 |  | -2.09 | active
Cc1ccccc1C(=O)Nc1ccc2c(c1)CCCN2C(=O)c1cccs1 |  | -2.04 | active
O=c1c2cc([N+](=O)[O-])ccc2nc(CN2CCOCC2)n1-c1ccccc1F | 0.297 (inactive) |  | 
O=C(Cc1cccs1)Nc1nc2c(s1)CCCC2 |  | -2.14 | active
Clc1ccc2nnnc(-c3ccccc3)c2c1 |  | -4.36 | active
CN(C(=O)Cc1cccs1)c1nc2c(s1)CCCC2 | 0.281 (inactive) |  | 
O=C(Nc1nc2c(s1)CCCC2)c1cccs1 | -0.12 (inactive) |  | 
